Source: US8124582B2, “Treatment of diabetes” (FibroGen, Inc., priority 2002, dated 2012)

Assays:
[1] = test system: HIF-1α; experiment: HIF-1α stabilization in cells, TRANSAM HIF-1 ELISA of nuclear fractions; format: cell-based, Human; conditions: epithelial cells (293A) and hepatocellular carcinoma (Hep3B); FIG. 12B
Method: Stabilization of HIFα using compounds and methods of the present invention was examined as follows. Human cells derived from adenovirus-transformed fetal kidney epithelium (293A), cervical epithelial adenocarcinoma (HeLa), hepatocellular carcinoma (Hep3B), squamous carcinoma (SSC-25), and lung fibroblast (HLF) (see, e.g., American Type Culture Collection, Manassas Va.; and Qbiogene, Carlsbad Calif.) were separately seeded into 100 mm culture dishes and grown at 37° C., 20% O2, 10% CO2 in media as follows: HeLa cells in Dulbecco's Modification of Eagle's Medium (DMEM), 2% fetal bovine serum (FBS); HLF cells in DMEM, 10%FBS; 293A cells in DMEM, 5%FBS; and Hep3B cells in Minimal Essential Medium (MEM), Earle's BSS (Mediatech Inc., Herndon Va.), 2 mM L-glutamine, 0.1 mM non-essential amino acids, 1 mM sodium pyruvate, 10% FBS. When cell layers reached confluence, the media was replaced with OPTI-MEM media (Invitrogen Life Technologies, Carlsbad Calif.) and cell layers were incubated for approximately 24 hours in 20% O2, 10% CO2 at 37° C. Compound of the invention (one of compounds B, F, G, and H) or DMSO (0.5 to 1%) was then added to existing medium, and incubation was continued overnight.
Alternatively, nuclear fractions were prepared using a Nuclear Extract kit (Active Motif, Carlsbad Calif.) and were analyzed for HIF-1α using a TRANSAM HIF-1 ELISA kit (Active Motif) according to the manufacturer's instructions.

[2] = test system: GluT-1; experiment: GluT-1 protein levels in H9c2 cells (Western blot); format: cell-based, rat; conditions: H9c2 cells, 5, 10, and 20 μM, 16 hours; FIG. 1B
Method: Human SSC-25 (squamous cell carcinoma) or rat H9c2 (ventricular cardiomyocyte) cells were grown to confluence in 100 mm culture dishes at 37° C., 10% CO2 in DMEM with 10% fetal calf serum. Cells were then washed twice with PBS and incubated with vehicle control, compound D (10 and 25 μM), or compound C (5, 10, and 20 μM) for 16 hours. Plates were placed on ice, culture supernatant was removed, and lysis buffer-1 (LB-1: 10 mM Tris pH 7.4, 1 mM EDTA, 150 mM sodium chloride, 0.5% IGEPAL) was added. Cell lysates were harvested by scraping, incubated for 15 minutes on ice, and then centrifuged at 3000×g for 5 minutes at 4° C. The supernatant, which represents the cytosolic fraction, was collected and cytosolic proteins were separated under reducing conditions using SDS-polyacrylamide gel electrophoresis (SDS-PAGE) with equal amounts of protein loaded per lane.
SDS-PAGE was conducted at 150 V for 2 hours, after which the proteins were transferred to a PVDF membrane at 400 mA for 1.5 hours at 4° C. The membrane was incubated in blocking buffer for 2 hours or overnight and washed once with T-TBS prior to addition of anti-GluT-1 antibody (Alpha Diagnostics) diluted to working concentration in blocking buffer. […]

[3] = Glycated hemoglobin (HbA1c) in db/db mice; format: in vivo, male db/db mice; conditions: 0.5 mg/ml in drinking water
Method: The effect of compound administration on glycated hemoglobin levels was examined using a mouse model of diabetes as follows. Twenty male db/db mice (Harlan) received drinking water containing either vehicle (100 μM histidine) or compound A (0.5 mg/ml) for a period of 8 weeks. Prior to study initiation and at weeks 4 and 8 following treatment, blood samples were collected from the tail vein and HbA1c levels were measured using an HbA1cNOW kit (Metrika Inc., Sunnyvale Calif.).

[4] = Body weight gain, abdominal fat pad and organ weight in diet-induced obesity model; format: in vivo, male C57BL/6J mice; conditions: C57BL/6J mice, 75 mg/kg/day oral gavage, 28 days; for abdominal fat pad weight on high-fat diet: FIG. 9B; for organ weights of kidney, liver, and heart between experimental groups: FIG. 9C; for body weight gain on high-fat diet vs untreated high-fat diet: p<0.05, FIG. 9A
Excerpt: C57B1/6J mice fed a high-fat diet develop severe obesity, hyperglycemia, and hyperinsulinemia, and are a model of diet-induced obesity, Type 2 diabetes, and impaired glucose tolerance. Forty male C57BL/6J mice obtained from The Jackson Laboratory (Bar Harbor Me.) were divided into the following experimental groups: Group 1: vehicle control animals fed standard mouse chow (n=10); Group 2: vehicle control animals fed high-fat mouse chow (45% fat from Research Diets) (n=10); Group 3: animals fed high-fat mouse chow and administered 75 mg/kg/day compound E by oral gavage (n=10); Group 4: animals fed high-fat mouse chow and administered 75 mg/kg/day compound A by oral gavage (n=10). The feeding regimen was continued for 28 days with weekly measurement of body weight. Animals were then sacrificed and their organs and fat pads were harvested and weighed.

[5] = Serum triglyceride levels in db/db mice; format: in vivo, male db/db mice; conditions: 0.5 mg/ml in drinking water, 8 weeks
Excerpt: The effect of compound administration on triglyceride levels was examined using a mouse model of diabetes as follows: Twenty male db/db mice (Harlan, Indianapolis, Ind.), which carry a homozygous loss-of-function mutation in the leptin receptor, were used for this study. Triglycerdide levels are typically elevated 1.5-2 times in db/db mice compared to that in normal mice. (Nishina et al (1994) Metabolism 43:549-553.) Triglyceride levels in db/db mice progressively increase with age. (Tuman and Doisy (1977) Diabetologia 13:7-11.) Mice received drinking water containing either vehicle (100 μM histidine) or compound A (0.5 mg/ml in 100 μM histidine) for a period of 8 weeks. At the termination of the study, animals were fasted overnight and blood samples were taken from the caudal vena cava under general anesthesia and placed in serum separator tubes. Blood samples were sent to Quality Clinical Labs (Mountain View, Calif.) for analysis.

[6] = Intra-Peritoneal Glucose Tolerance Test in diet-induced Type 2 diabetes model; format: in vivo, male C57BL/6J mice; conditions: 75 mg/kg/day oral gavage, 14 days
Method: C57B1/6J mice fed a high-fat diet develop severe obesity, hyperglycemia, and hyperinsulinemia, and are a model of diet-induced obesity, Type 2 diabetes, and impaired glucose tolerance. Forty male C57BL/6J mice obtained from The Jackson Laboratory (Bar Harbor Me.) were divided into the following experimental groups: Group 1: vehicle control animals fed standard mouse chow (n=10); Group 2: animals fed standard mouse chow and administered 75 mg/kg/day compound E by oral gavage (n=10); Group 3: vehicle control animals fed high-fat mouse chow (45% fat from Research Diets) (n=10); Group 4: animals fed high-fat mouse chow and administered 75 mg/kg/day compound E by oral gavage (n=10). The feeding regimen was continued for 14 days with daily measurement of body weight and food consumption. Animals were then fasted for 4 hours prior to an Intra-Peritoneal Glucose Tolerance Test (IPGTT) using a glucose load of 2 g glucose/kg body weight. Blood samples were taken for determination of blood glucose levels at 0, 15, 30, 60, and 90 minutes following glucose administration.

Row | Structure (SMILES) | HIFα stabilization and accumulation (ELISA) compared to vehicle-treated control cells [1] | abdominal fat pad weight on high-fat diet [4] | organ weights of kidney, liver, and heart between experimental groups [4] | body weight gain on high-fat diet vs untreated high-fat diet [4] | other results
1 | CC(C)Oc1ccc2nc(C(=O)NCC(=O)O)c(O)cc2c1 [compound F, [(3-Hydroxy-6-isopropoxy-quinoline-2-carbonyl)-amino]-acetic acid] | stabilization and accumulation of HIFα |  |  |  | 
2 | O=C(O)CNC(=O)c1ncc2cc(Oc3ccccc3)ccc2c1O [compound C, [(4-Hydroxy-7-phenoxy-isoquinoline-3-carbonyl)-amino]-acetic acid] |  |  |  |  | protein levels of GluT-1 [2]: increased
3 | O=C(O)CNC(=O)c1nc2cc(Cl)ccc2cc1O [compound A, [(7-Chloro-3-hydroxy-quinoline-2-carbonyl)-amino]-acetic acid] |  | essentially the same fat pad weight as animals fed a normal diet | not different | significantly less weight gain | HbA1c levels at week 8 vs non-treated [3]: significantly lower; HbA1c levels at week 8 ([3]; 8 weeks, control rose from about 7.5% to about 10%, FIG. 6): about 7.5%; HbA1c levels over time ([3]; weeks 0 to 8): did not increase over time; triglyceride level vs controls [5]: significantly lower than controls; triglyceride level ([5]; fasted overnight, control approximately 120 mg/dL, FIG. 11): approximately 85 mg/dL
4 | COC(=O)CNC(=O)c1nc(Cl)c2cc(OCc3ccccc3)ccc2c1O [compound H, [(7-Benzyloxy-1-chloro-4-hydroxy-isoquinoline-3-carbonyl)-amino]-acetic acid methyl ester] | stabilization and accumulation of HIFα |  |  |  | 
5 | COc1ccc2c(O)c(C(=O)NCC(=O)O)nc(Cl)c2c1 [compound E, [(1-Chloro-4-hydroxy-7-methoxy-isoquinoline-3-carbonyl)-amino]-acetic acid] |  | essentially the same fat pad weight as animals fed a normal diet | not different | significantly less weight gain | glucose clearance rate in IPGTT, treated high-fat diet mice (RxHF) vs mice on standard chow ([6]; 2 g glucose/kg, FIG. 5A): substantially the same; glucose AUC in IPGTT, treated mice (RxChow, RxHF) vs standard chow without compound (VeChow) ([6]; FIG. 5B): no statistical difference; glucose AUC in IPGTT, high-fat chow without compound (VeHF) vs high-fat chow treated (RxHF) ([6]; t-test, p<0.05, FIG. 5B): statistically significant difference
6 | O=C(O)CNC(=O)c1ncccc1O [compound G, [(3-Hydroxy-pyridine-2-carbonyl)-amino]-acetic acid] | stabilization and accumulation of HIFα |  |  |  | 
